Source: patent US20130072427A1, “GPR 119 MODULATORS” (Pfizer Inc., priority 2009, published 2013)
Where “and” joins values, the source holds several entries; their conditions need not be identical. Equal entries are not always repeated.

Experiments:
human GPR119 [1] = molecular target: T1, human GPR119 (Homo sapiens, UniProt Q8TDV5); assay: Beta-arrestin functional assay (DiscoverX PathHunter U2OS hGPR119 β-arrestin cells); type: cell-based; parameters: Emax: dose or concentration left out as unconfirmed; conditions: one line per run; for EC50: U2OS hGPR119 β-arrestin cells, 90 minute incubation, read-out: Human B-arrestin Functional EC50; for Emax: U2OS, percent of maximal activity relative to standard GPR119 agonist (WO2005121121) at 10 microM, read-out: Intrinsic Activity* (%) (B-arrestin)
T1 construct: host or cells: U2OS
Experimental: GPR119 agonist activity was also determined with a cell-based assay utilizing DiscoverX PathHunter β-arrestin cell assay technology and their U2OS hGPR119 β-arrestin cell line (DiscoverX Cat #93-0356C3). In this assay, agonist activation is determined by measuring agonist-induced interaction of β-arrestin with activated GPR119. A small, 42 amino acid enzyme fragment, called ProLink was appended to the C-terminus of GPR119. Arrestin was fused to the larger enzyme fragment, termed EA (Enzyme Acceptor). Activation of GPR119 stimulates binding of arrestin and forces the complementation of the two enzyme fragments, resulting in formation of a functional β-galactosidase enzyme capable of hydrolyzing substrate and generating a chemiluminescent signal.
Specifically, U2OS hGPR119 β-arrestin cells (DiscoverX 1×10^7/ml) are removed from cryopreservation and diluted in growth medium (Minimum essential medium (MEM; Gibco Cat #11095-080), 10% heat inactivated fetal bovine serum (HIFBS; Sigma Cat #F4135-100), 100 mM sodium pyruvate (Sigma Cat #S8636), 500 microg/mL G418 (Sigma Cat #G8168) and 250 microg/mL Hygromycin B (Invitrogen Cat #10687-010). The cell concentration was adjusted to 1.66×10^5 cells/ml and 30 mls of this suspension was added to a T-175 flask and incubated at 37 degrees Celsius in a humidified environment in 5% carbon dioxide. After 48 hours, the cells were removed from the T-175 flask with enzyme-free cell dissociation buffer (Gibco cat #13151-014), centrifuged at 800×g and then re-suspended in plating medium (Opti-MEM I (Invitrogen/BRL Cat #31985-070) and 2% charcoal dextran treated fetal bovine serum (CD serum; HyClone Cat #SH30068.03). The cell concentration was adjusted to 2.5×10^5 cells/ml with plating medium and 10 microL of this cell suspension (2500 cells) was added to each well of a white Greiner 384-well low volume assay plate (VWR cat #82051-458) and the plates were incubated at 37 degrees Celsius in a humidified environment in 5% carbon dioxide.
After 16 hours (overnight) the assay plates were removed from the incubator and varying concentrations of each compound to be tested (diluted in assay buffer (1×HBSS+CaCl2+MgCl2 (Gibco Cat #14025-092), 20 mM HEPES pH 7.0 (Gibco Cat #15630-080) and 0.1% BSA (Sigma Cat #A9576)) were added to the assay plate wells in a volume of 2.5 microL (final DMSO concentration was 0.5%). After a 90 minute incubation at 37 degrees Celsius in a humidified environment in 5% carbon dioxide, 7.5 microL of Galacton Star β-galactosidase substrate (PathHunter Detection Kit (DiscoveRx Cat #93-0001); prepared as described in the manufacturers assay protocol) was added to each well of the assay plate. The plates were incubated at room temperature and after 60 minutes, changes in the luminescence were read with an Envision 2104 multilabel plate reader at 0.1 seconds per well. EC50 determinations were made from an agonist-response curves analyzed with a curve fitting program using a 4-parameter logistic dose response equation.
T1 sequence (P32121 whole entry partner, one chain of several): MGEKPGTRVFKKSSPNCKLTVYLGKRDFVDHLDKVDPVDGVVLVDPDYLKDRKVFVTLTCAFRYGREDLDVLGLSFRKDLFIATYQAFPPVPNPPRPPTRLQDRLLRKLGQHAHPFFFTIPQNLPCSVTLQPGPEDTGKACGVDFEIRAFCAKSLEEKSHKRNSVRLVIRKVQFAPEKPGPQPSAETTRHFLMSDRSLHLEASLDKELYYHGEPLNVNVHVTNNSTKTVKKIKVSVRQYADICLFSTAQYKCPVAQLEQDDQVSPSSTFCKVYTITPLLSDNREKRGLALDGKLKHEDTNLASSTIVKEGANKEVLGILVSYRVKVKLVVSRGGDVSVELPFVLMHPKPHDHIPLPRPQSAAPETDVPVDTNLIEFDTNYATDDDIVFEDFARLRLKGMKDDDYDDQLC

human GPR119 [2] = molecular target: T2, human GPR119 (Homo sapiens, UniProt Q8TDV5); assay: Beta-lactamase functional assay (hGPR119 HEK293-CRE beta-lactamase reporter); type: cell-based; conditions: one line per run; for EC50: hGPR119 HEK293-CRE beta-lactamase cells, 16 hours incubation, read-out: Human B-lactamase Functional EC50; for Emax: percent of maximal activity relative to standard GPR119 agonist (WO2005121121) at 10 microM, read-out: Intrinsic Activity* (%) (B-lactamase)
T2 construct: host or cells: HEK293-CRE beta-lactamase cells
T2 sequence (Q8TDV5 1-335): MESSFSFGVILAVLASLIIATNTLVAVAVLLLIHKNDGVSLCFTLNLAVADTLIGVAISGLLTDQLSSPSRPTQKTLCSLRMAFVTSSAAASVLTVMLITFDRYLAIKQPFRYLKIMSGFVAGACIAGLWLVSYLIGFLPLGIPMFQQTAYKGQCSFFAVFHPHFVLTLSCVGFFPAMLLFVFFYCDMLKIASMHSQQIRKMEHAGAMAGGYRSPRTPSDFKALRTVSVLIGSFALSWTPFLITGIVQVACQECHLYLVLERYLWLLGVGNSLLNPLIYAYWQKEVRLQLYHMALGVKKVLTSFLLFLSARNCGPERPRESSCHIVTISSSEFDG
Experimental: The assay for GPR119 agonists utilizes a cell-based (hGPR119 HEK293-CRE beta-lactamase) reporter construct where agonist activation of human GPR119 is coupled to beta-lactamase production via a cyclic AMP response element (CRE). GPR119 activity is then measured utilizing a FRET-enabled beta-lactamase substrate, CCF4-AM (Live Blazer FRET-B/G Loading kit, Invitrogen cat #K1027). Specifically, hGPR119-HEK-CRE-beta-lactamase cells (Invitrogen 2.5×10^7/mL) were removed from liquid nitrogen storage, and diluted in plating medium (Dulbecco's modified Eagle medium high glucose (DMEM; Gibco Cat #11995-065), 10% heat inactivated fetal bovine serum (HIFBS; Sigma Cat #F4135), 1×MEM Nonessential amino acids (Gibco Cat #15630-080), 25 mM HEPES pH 7.0 (Gibco Cat #15630-080), 200 nM potassium clavulanate (Sigma Cat #P3494). The cell concentration was adjusted using cell plating medium and 50 microL of this cell suspension ([…]) was added into each well of a black, clear bottom, poly-d-lysine coated 384-well plate (Greiner Bio-One cat #781946) and incubated at 37 degrees Celsius in a humidified environment containing 5% carbon dioxide. After 4 hours the plating medium was removed and replaced with 40 microL of assay medium (Assay medium is plating medium without potassium clavulanate and HIFBS). Varying concentrations of each compound to be tested was then added in a volume of 10 microL (final DMSO≦0.5%) and the cells were incubated for 16 hours at 37 degrees Celsius in a humidified environment containing 5% carbon dioxide. Plates were removed from the incubator and allowed to equilibrate to room temperature for approximately 15 minutes. 10 microL of 6×CCF4/AM working dye solution (prepared according to instructions in the Live Blazer FRET-B/G Loading kit, Invitrogen cat #K1027) was added per well and incubated at room temperature for 2 hours in the dark. Fluorescence was measured on an EnVision fluorimetric plate reader, excitation 405 nm, emission 460 nm/535 nm. EC50 determinations were made from agonist-response curves analyzed with a curve fitting program using a 4-parameter logistic dose-response equation.

Compound	EC50 (human GPR119 [1])	Emax (human GPR119 [1]) [%]	EC50 (human GPR119 [2]) [nM]	Emax (human GPR119 [2]) [%]
Cc1c(O[C@H]2CCN(C(=O)OC(C)(C)C)C[C@H]2F)ncnc1N1Cc2cnn(C)c2C1 (racemic) [Example 6, tert-Butyl (3,4-cis)-3-fluoro-4-{[5-methyl-6-(1-methyl-4,6-dihydropyrrolo[3,4-c]pyrazol-5(1H)-yl)pyrimidin-4-yl]oxy}piperidine-1-carboxylate (racemic)]	19 nM	67	–	–
Cc1c(OC2CCN(C(=O)OC(C)C)CC2)ncnc1N1Cc2cnn(C)c2C1 [Example 2, Isopropyyl 4-{[5-methyl-6-(1-methyl-4,6-dihydropyrrolo[3,4-c]pyrazol-5(1H)-yl)pyrimidin-4-yl]oxy}piperidine-1-carboxylate]	–	–	662	103
CC(C)OC(=O)N1CCC(Oc2ncnc(N3Cc4cnn(C)c4C3)c2C#N)CC1 [Example 3, Isopropyyl 4-{[5-cyano-6-(1-methyl-4,6-dihydropyrrolo[3,4-c]pyrazol-5(1H)-yl)pyrimidin-4-yl]oxy}piperidine-1-carboxylate]	–	–	2050	107

More lines, now with the values ahead:

EC50 (human GPR119 [1])	Emax (human GPR119 [1]) [%]	EC50 (human GPR119 [2]) [nM]	Emax (human GPR119 [2]) [%]	Compound
23 nM	77	–	–	Cc1c(O[C@H]2CCN(C(=O)OC3(C)CC3)C[C@H]2F)ncnc1N1Cc2cnn(C)c2C1 (racemic) [Example 7, 1-Methylcyclopropyyl (3,4-cis)-3-fluoro-4-{[5-methyl-6-(1-methyl-4,6-dihydropyrrolo[3,4-c]pyrazol-5(1H)-yl)pyrimidin-4-yl]oxy}piperidine-1-carboxylate (racemic)]
81 nM and 754 nM	–	–	–	Cc1c(O[C@H]2CCN(C(=O)OC(C)(C)C)C[C@@H]2F)ncnc1N1Cc2cnn(C)c2C1 (racemic) [Example 8, tert-Butyl (3,4-trans)-3-fluoro-4-{[5-methyl-6-(1-methyl-4,6-dihydropyrrolo[3,4-c]pyrazol-5(1H)-yl)pyrimidin-4-yl]oxy}piperidine-1-carboxylate (racemic)]
56 nM	70	–	–	Cc1c(O[C@H]2[C@@H]3COC[C@H]2CN(C(=O)OC(C)(C)C)C3)ncnc1N1Cc2cnn(C)c2C1 [Example 9, tert-Butyl (9-anti)-9-{[5-methyl-6-(1-methyl-4,6-dihydropyrrolo[3,4-c]pyrazol-5(1H)-yl)pyrimidin-4-yl]oxy}-3-oxa-7-azabicyclo[3.3.1]nonane-7-carboxylate]
